These results are taken from US5641802A, “Tachyquinine antagonists, their preparation and use in pharmaceutical formulations” (A. Menarini Industrie Farmaceutiche Reiunite S.r.l., priority 1992, dated 1997).

Molecules are shown by their SMILES.

The target of this assay is T1, NK1 receptor (Homo sapiens, UniProt P25103).
T1 construct: endogenous in cells; host or cells: IM9 cells (intact)
Nature of the assay: [3H] SP binding assay in IM9 Cell Line (Substance P antagonism). The settings on record: intact IM9 cells, 60 min, room temperature, compound at 1 μM. How it is done:
Assessment of biological activity (NK1 antagonism) of compounds of this invention was performed by means of the following binding and functional assays:
[3H] SP binding assay in IM9 Cell Line
Binding assay was performed with intact cells as described by Payan et al. (J. Immunology 133, 3260 (1984)). Cells were washed with buffer A, (pH 7.5), containing (in mM) Tris-HCl 50, and NaCl 150, plus 0.02% BSA, and then resuspended in assay buffer (buffer A supplemented with protease inhibitors) at a concentration of 1×10^7 cells/ml. Cells were incubated with [3H]SP in a final volume of 0.5 ml for 60 min. at room temperature. Nonspecific binding was determined in the presence of […] nonradioactive SP. The assay mixture was set up in microfuge tubes that had been presoaked in a 0.5% BSA solution for at least 3 hours. Bound and free [^3 H]SP were separated by pelleting the cells in a microfuge (6 min.; 12000 g); the supernatant was then removed by aspiration. For competition binding experiments, IM9 cells were incubated in triplicate with […] [^3 H]SP (the approximate Kd value, as determined in saturation binding experiments); competing ligands were typically added in six concentrations (1:10 dilutions in assay buffer) to give full competition curves.

T1 sequence (P25103 whole entry): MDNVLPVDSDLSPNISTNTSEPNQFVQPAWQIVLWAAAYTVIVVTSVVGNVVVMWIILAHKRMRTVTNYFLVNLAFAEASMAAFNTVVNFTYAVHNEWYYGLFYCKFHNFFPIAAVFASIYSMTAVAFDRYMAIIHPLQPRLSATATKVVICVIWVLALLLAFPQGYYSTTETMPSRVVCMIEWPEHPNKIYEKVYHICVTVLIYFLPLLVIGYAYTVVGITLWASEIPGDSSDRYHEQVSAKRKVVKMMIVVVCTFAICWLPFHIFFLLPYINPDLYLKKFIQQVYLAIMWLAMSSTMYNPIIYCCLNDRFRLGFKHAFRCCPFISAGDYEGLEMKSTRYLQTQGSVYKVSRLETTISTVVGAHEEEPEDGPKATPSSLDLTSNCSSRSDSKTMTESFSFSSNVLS

In general, inhibition refers to the relative decrease from the control value, in per cent. The compound `CN(Cc1ccccc1)C(=O)[C@H](Cc1ccccc1)NC(=O)C1CCCCC1NC(=O)c1c[nH]c2ccccc12` (stereo partly drawn) [Example 1 fast, N-methyl-N-benzylamide of N^α -{[N(indol-3-yl-carbonyl)(R,R)-trans-2-amino]cyclohexanoyl}-L-phenylalanine and N-methyl-N-benzylamide of N^α -{[N(indol-3-yl-carbonyl)(S,S)-trans-2-amino]cyclohexanoyl}-L-phenylalamine, reference compound] returned an inhibition at 1 µM of 96%.
As for `CN(Cc1ccccc1)C(=O)[C@H](Cc1ccccc1)NC(=O)C1CCCCC1NC(=O)c1c[nH]c2ccccc12` (stereo partly drawn) [Example 2 fast, N-methyl-N-benzylamide of N^α -{[N(indol-3-yl-carbonyl)(R,S)-cis-2-amino]cyclohexanoyl}-L-phenylalanine and N-methyl-N-benzylamide of N^α -{[N(indol-3-yl-carbonyl)(S,R)-cis-2-amino]cyclohexanoyl}-L-phenylalanine], the “% of binding inhibition at 1 μM” value (1 µM) is 100%.
In turn, `CN(Cc1ccccc1)C(=O)[C@H](Cc1ccc2ccccc2c1)NC(=O)C1C2CCC(C2)C1NC(=O)c1c[nH]c2ccccc12` (stereo partly drawn) [Example 10 fast, N^α [N-(1H-indol-3-yl-carbonyl)-3S-endoaminobicyclo(2,2,1)heptyl-2R endocarbonyl]-L-3-(2-naphthyl)alanyl-N-methyl-N-benzylamide and N^α [N-(1H-indol-3-yl-carbonyl)-3R-endoaminobicyclo(2,2,1)heptyl-2S-endocarbonyl]-L-3-(2-naphthyl)alanyl-N-methyl-N-benzylamide] yielded an inhibition at 1 µM of 95%.
On the same count and under the same terms, next, `CN(Cc1ccccc1)C(=O)[C@H](Cc1ccc2ccccc2c1)NC(=O)C1CCCCC1NC(=O)c1c[nH]c2ccccc12` (stereo partly drawn) [Example 3 fast, N^α [N-(1H-indol-3-yl-carbonyl)-(R,S)cis-2-aminocyclohexyl-carbonyl]-L-3(2-naphthyl)alanyl-N-methyl-N-benzylamide and N^α [N-(1H-indol-3-yl-carbonyl)-(S,R)cis-2-aminocyclohexyl-carbonyl]-L-3(2-naphthyl)alanyl-N-methyl-N-benzylamide]: 100%; `CN(Cc1ccccc1)C(=O)[C@@H](Cc1ccc2ccccc2c1)NC(=O)C1CCCCC1NC(=O)c1ccccc1` (stereo partly drawn) [Example 17 fast, N^α [N-(benzoyl)-(R,S)cis-2-aminocyclohexyl-carbonyl]-D-3-(2-naphthyl)alanyl-N-methyl-N-benzylamide and N^α [N-(benzoyl)-(S,R)cis-2-aminocyclohexyl-carbonyl]-D-3-(2-naphthyl)alanyl-N-methyl-N-benzylamide]: 98%.
